What all share (format): in vivo
The test system of assay [1] is Alopecurus myosuroides (ALOMY). Nature of the assay: Glasshouse herbicide test, post-emergence. The conditions noted are these: 1000 g/h, evaluated after 13 days, five point scale. How it is done: (§1) Seeds of a variety of test species are sown in standard soil in pots Alopecurus myosuroides (ALOMY), Amaranthus retoflexus (AMARE), Setaria faberi (SETFA), Echinochloa crus-galli (ECHCG), Lolium perenne (LOLPE), Solanum nigrum (SOLNI), Stellaria media (STEME) and Digitaria sanguinalis (DIGSA). After cultivation for one day (pre-emergence) or after 8 days cultivation (post-emergence) under controlled conditions in a glasshouse (at 24/16° C., day/night; 14 hours light; 65% humidity), the plants are sprayed with an aqueous spray solution derived from the formulation of the technical active ingredient in acetone/water (50:50) solution containing 0.5% Tween 20 (polyoxyethelyene sorbitan monolaurate, CAS RN 9005-64-5). Compounds are applied at 1000 g/h. The test plants are then grown in a glasshouse under controlled conditions in a glasshouse (at 24/16° C., day/night; 14 hours light; 65% humidity) and watered twice daily. After 13 days for pre and post-emergence, the test is evaluated for the percentage damage caused to the plant. The biological activities are shown in the following table on a five point scale (5=80-100%; 4=60-79%; 3=40-59%; 2=20-39%; 1=0-19%).

Assay [2] deals with Amaranthus retoflexus (AMARE). Put plainly: Glasshouse herbicide test, post-emergence. As to conditions: 1000 g/h, evaluated after 13 days, five point scale, second table. The protocol: as §1
In assay [3] the test system is Echinochloa crus-galli (ECHCG). Nature of the assay: Glasshouse herbicide test, post-emergence. The conditions noted are these: 1000 g/h, evaluated after 13 days, five point scale. How it is done: as §1
Assay [4] has as its system IPOHE. Put plainly: Glasshouse herbicide test, post-emergence. The conditions noted are these: 1000 g/h, evaluated after 13 days, five point scale. How it is done: [The procedure below names another species; the source lists this species under the same test.] as §1
The subject of assay [5] is Setaria faberi (SETFA). Nature of the assay: Glasshouse herbicide test, post-emergence. As to conditions: 1000 g/h, evaluated after 13 days, five point scale. How it is done: as §1
Assay [6] relates to Solanum nigrum (SOLNI). Put plainly: Glasshouse herbicide test, post-emergence. The conditions noted are these: 1000 g/h, evaluated after 13 days, five point scale. How it is done:
as §1

Assay [7] deals with Alopecurus myosuroides (ALOMY). Nature of the assay: Glasshouse herbicide test, pre-emergence. The conditions noted are these: 1000 g/h, evaluated after 13 days, five point scale. How it is done: as §1
Assay [8] concerns Amaranthus retoflexus (AMARE). Put plainly: Glasshouse herbicide test, pre-emergence. The conditions noted are these: 1000 g/h, evaluated after 13 days, five point scale, second table. The protocol: as §1
The test system of assay [9] is Echinochloa crus-galli (ECHCG). Put plainly: Glasshouse herbicide test, pre-emergence. As to conditions: 1000 g/h, evaluated after 13 days, five point scale. The protocol:
as §1

Assay [10] has as its system IPOHE. Nature of the assay: Glasshouse herbicide test, pre-emergence. The conditions noted are these: 1000 g/h, evaluated after 13 days, five point scale. The protocol:
[The procedure below names another species; the source lists this species under the same test.] as §1

Assay [11] concerns Setaria faberi (SETFA). Nature of the assay: Glasshouse herbicide test, pre-emergence. The conditions noted are these: 1000 g/h, evaluated after 13 days, five point scale. The protocol:
as §1

For assay [12], the system named is Solanum nigrum (SOLNI). Nature of the assay: Glasshouse herbicide test, pre-emergence. The conditions noted are these: 1000 g/h, evaluated after 13 days, five point scale. The protocol:
as §1

Regarding `CCc1nnc(NC(=O)c2ccc(S(C)(=O)=O)c(COCC(F)(F)F)c2Cl)n1C` [Compound 1.013], the “percentage damage caused to the plant, ALOMY, POST Application” value in [1] is given as 2 (2=20-39%). In [2], the “percentage damage caused to the plant, AMARE, POST Application” value is recorded as 1 (1=0-19%). Further, the “percentage damage caused to the plant, ECHCG, POST Application” value in assay [3] was 1 (1=0-19%). Further, the “percentage damage caused to the plant, IPOHE, POST Application” value in the assay with IPOHE [4] is given as 1 (1=0-19%). Further, the “percentage damage caused to the plant, SETFA, POST Application” value in the assay on Setaria faberi (SETFA) [5] was 1 (1=0-19%). Further, the “percentage damage caused to the plant, SOLNI, POST Application” value in the assay on Solanum nigrum (SOLNI) [6] is 2 (2=20-39%). Further, in [7], the “percentage damage caused to the plant, ALOMY, PRE Application” value was 1 (1=0-19%). Further, the “percentage damage caused to the plant, AMARE, PRE Application” value in assay [8] is 1 (1=0-19%). The “percentage damage caused to the plant, ECHCG, PRE Application” value in [9] is listed as 1 (1=0-19%). Further, in the assay with IPOHE [10], the “percentage damage caused to the plant, IPOHE, PRE Application” value is 1 (1=0-19%). Further, the “percentage damage caused to the plant, SETFA, PRE Application” value in the assay with Setaria faberi (SETFA) [11] is listed as 1 (1=0-19%). In the assay on Solanum nigrum (SOLNI) [12], the “percentage damage caused to the plant, SOLNI, PRE Application” value is reported as 1 (1=0-19%).

As for `CCn1cnnc1NC(=O)c1ccc(S(C)(=O)=O)c(COCC(F)(F)F)c1Cl` [Compound 1.014], the “percentage damage caused to the plant, ALOMY, POST Application” value in [1] was 5 (5=80-100%). For the same compound, in assay [2], the “percentage damage caused to the plant, AMARE, POST Application” value is 5 (5=80-100%). In assay [3], the “percentage damage caused to the plant, ECHCG, POST Application” value is on record as 5 (5=80-100%). The “percentage damage caused to the plant, IPOHE, POST Application” value in the assay on IPOHE [4] is 5 (5=80-100%). In addition, in the assay with Setaria faberi (SETFA) [5], the “percentage damage caused to the plant, SETFA, POST Application” value is reported as 5 (5=80-100%). In addition, the “percentage damage caused to the plant, SOLNI, POST Application” value in the assay on Solanum nigrum (SOLNI) [6] is 5 (5=80-100%). Besides, the “percentage damage caused to the plant, ALOMY, PRE Application” value in assay [7] is listed as 5 (5=80-100%). For the same compound, the “percentage damage caused to the plant, AMARE, PRE Application” value in [8] is 5 (5=80-100%). The “percentage damage caused to the plant, ECHCG, PRE Application” value in [9] is 5 (5=80-100%). For the same compound, the “percentage damage caused to the plant, IPOHE, PRE Application” value with IPOHE [10] is listed as 5 (5=80-100%). Moreover, the “percentage damage caused to the plant, SETFA, PRE Application” value in the assay with Setaria faberi (SETFA) [11] is reported as 5 (5=80-100%). Besides, the “percentage damage caused to the plant, SOLNI, PRE Application” value with Solanum nigrum (SOLNI) [12] is reported as 5 (5=80-100%).

On to `CCn1c(C)nnc1NC(=O)c1ccc(S(C)(=O)=O)c(COCC(F)(F)F)c1Cl` [Compound 1.015], for which the “percentage damage caused to the plant, ALOMY, POST Application” value in [1] is on record as 2 (2=20-39%). Further, in assay [2], the “percentage damage caused to the plant, AMARE, POST Application” value is 4 (4=60-79%). Moreover, in [3], the “percentage damage caused to the plant, ECHCG, POST Application” value is reported as 2 (2=20-39%). For the same compound, the “percentage damage caused to the plant, IPOHE, POST Application” value with IPOHE [4] was 4 (4=60-79%). For the same compound, the “percentage damage caused to the plant, SETFA, POST Application” value in the assay on Setaria faberi (SETFA) [5] is 1 (1=0-19%). Besides, the “percentage damage caused to the plant, SOLNI, POST Application” value in the assay on Solanum nigrum (SOLNI) [6] is listed as 4 (4=60-79%). Also, in assay [7], the “percentage damage caused to the plant, ALOMY, PRE Application” value is listed as 1 (1=0-19%). Further, the “percentage damage caused to the plant, AMARE, PRE Application” value in [8] was 4 (4=60-79%). In assay [9], the “percentage damage caused to the plant, ECHCG, PRE Application” value is on record as 1 (1=0-19%). For the same compound, the “percentage damage caused to the plant, IPOHE, PRE Application” value with IPOHE [10] is reported as 2 (2=20-39%). Also, the “percentage damage caused to the plant, SETFA, PRE Application” value in the assay with Setaria faberi (SETFA) [11] is 1 (1=0-19%). The “percentage damage caused to the plant, SOLNI, PRE Application” value in the assay on Solanum nigrum (SOLNI) [12] was 4 (4=60-79%).

For `Cn1cnnc1NC(=O)c1cc(F)c(F)cc1[N+](=O)[O-]` [Compound 2.003], the “percentage damage caused to the plant, ALOMY, POST Application” value in assay [1] is 1 (1=0-19%). For the same compound, the “percentage damage caused to the plant, AMARE, POST Application” value in [2] is 1 (1=0-19%). Further, in assay [3], the “percentage damage caused to the plant, ECHCG, POST Application” value is reported as 1 (1=0-19%). Further, the “percentage damage caused to the plant, IPOHE, POST Application” value in the assay with IPOHE [4] is given as 1 (1=0-19%). In the assay on Setaria faberi (SETFA) [5], the “percentage damage caused to the plant, SETFA, POST Application” value is 1 (1=0-19%). For the same compound, the “percentage damage caused to the plant, SOLNI, POST Application” value in the assay on Solanum nigrum (SOLNI) [6] is 1 (1=0-19%). In addition, in assay [7], the “percentage damage caused to the plant, ALOMY, PRE Application” value is recorded as 1 (1=0-19%). For the same compound, in assay [8], the “percentage damage caused to the plant, AMARE, PRE Application” value is 1 (1=0-19%). For the same compound, the “percentage damage caused to the plant, ECHCG, PRE Application” value in assay [9] is listed as 1 (1=0-19%). The “percentage damage caused to the plant, IPOHE, PRE Application” value with IPOHE [10] is listed as 1 (1=0-19%). The “percentage damage caused to the plant, SETFA, PRE Application” value with Setaria faberi (SETFA) [11] is 1 (1=0-19%). Also, the “percentage damage caused to the plant, SOLNI, PRE Application” value in the assay with Solanum nigrum (SOLNI) [12] is listed as 1 (1=0-19%).

Turning to `Cc1ccc([N+](=O)[O-])c(C(=O)Nc2nncn2C)c1` [Compound 2.005], the “percentage damage caused to the plant, ALOMY, POST Application” value in [1] was 1 (1=0-19%). Also, the “percentage damage caused to the plant, AMARE, POST Application” value in assay [2] is 4 (4=60-79%). Besides, the “percentage damage caused to the plant, ECHCG, POST Application” value in [3] was 1 (1=0-19%). The “percentage damage caused to the plant, IPOHE, POST Application” value in the assay on IPOHE [4] is given as 4 (4=60-79%). For the same compound, in the assay on Setaria faberi (SETFA) [5], the “percentage damage caused to the plant, SETFA, POST Application” value is 1 (1=0-19%). In addition, in the assay on Solanum nigrum (SOLNI) [6], the “percentage damage caused to the plant, SOLNI, POST Application” value is recorded as 4 (4=60-79%). In addition, the “percentage damage caused to the plant, ALOMY, PRE Application” value in assay [7] is 1 (1=0-19%). Also, in [8], the “percentage damage caused to the plant, AMARE, PRE Application” value is listed as 2 (2=20-39%). For the same compound, the “percentage damage caused to the plant, ECHCG, PRE Application” value in assay [9] was 1 (1=0-19%). In addition, in the assay with IPOHE [10], the “percentage damage caused to the plant, IPOHE, PRE Application” value was 3 (3=40-59%). The “percentage damage caused to the plant, SETFA, PRE Application” value in the assay with Setaria faberi (SETFA) [11] was 1 (1=0-19%). Also, the “percentage damage caused to the plant, SOLNI, PRE Application” value in the assay with Solanum nigrum (SOLNI) [12] is 2 (2=20-39%).

These data come from US20150065345A1, “1,2,4 - TRIAZOLE DERIVATIVES AS HERBICIDALS” (SYNGENTA LIMITED, priority 2012, published 2015).
